Laboratory results published in PubChem BioAssay AID256 (DTP/NCI, 2004).
Values joined by “and” are separate entries in the source; they are usually repeats but may differ in a detail not shown here. Equal values may be shown once. Inconclusive results and toxic doses are left out. Rule for the calls: active = survival T/C of 150% or more; inactive = T/C below 125% in these data.

Test system: CD2F1 mice, L1210 leukemia ip, survival T/C
Assay: NCI In Vivo Anticancer Drug Screen. Data for tumor model L1210 Leukemia (intraperitoneal) in CD2F1 (CDF1) mice
Conditions: endpoint: mean survival time, higher = longer survival
How it was run: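 Vehicle-treated tumor-bearing mice served as controls (C) for compound-treated mice (T). Reported figure is T divided by C.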

[1] = dose: 100.0 mg/kg/injection, schedule: Q01DX009 (ip), vehicle: saline with Tween-80
[2] = dose: 100.0 mg/kg/injection, schedule: Q04DX003 (ip), vehicle: saline with Tween-80
[3] = dose: 200.0 mg/kg/injection, schedule: Q01DX009 (ip), vehicle: saline with Tween-80
[4] = dose: 200.0 mg/kg/injection, schedule: Q04DX003 (ip), vehicle: saline with Tween-80
[5] = dose: 400.0 mg/kg/injection, schedule: Q04DX003 (ip), vehicle: saline with Tween-80
[6] = dose: 50.0 mg/kg/injection, schedule: Q01DX009 (ip), vehicle: Klucel (hydroxypropylcellulose) (HPC)
[7] = dose: 100.0 mg/kg/injection, schedule: Q01DX009 (ip), vehicle: Klucel (hydroxypropylcellulose) (HPC)
[8] = dose: 200.0 mg/kg/injection, schedule: Q01DX009 (ip), vehicle: Klucel (hydroxypropylcellulose) (HPC)
[9] = dose: 25.0 mg/kg/injection, schedule: Q01DX009 (ip), vehicle: Klucel (hydroxypropylcellulose) (HPC)
[10] = dose: 100.0 mg/kg/injection, schedule: Q01DX001 (ip), vehicle: saline with Tween-80

Measured: T/C

CCc1ccc(C#N)cc1O
inactive: [1] 102 % of control | [2] 96 % of control | [3] 98 % of control | [4] 100 % of control | dose: 400.0 mg/kg/injection, schedule: Q01DX009 (ip), vehicle: saline with Tween-80 96 % of control | [5] 100 % of control

COC(=O)CCN(C(=O)c1ccccc1)c1ccccc1C(=O)OC
inactive: dose: 75.0 mg/kg/injection, schedule: Q04DX003 (ip), vehicle: saline 100 % of control | dose: 150.0 mg/kg/injection, schedule: Q04DX003 (ip), vehicle: saline 94 % of control | dose: 300.0 mg/kg/injection, schedule: Q04DX003 (ip), vehicle: saline 100 % of control

NCc1ccncc1
inactive: dose: 100.0 mg/kg/injection, schedule: Q04DX002 (ip), vehicle: saline 106 % of control | dose: 200.0 mg/kg/injection, schedule: Q04DX002 (ip), vehicle: saline 95 % of control | dose: 400.0 mg/kg/injection, schedule: Q04DX002 (ip), vehicle: saline 98 % of control

CC(=O)[C@H]1CC[C@H]2[C@@H]3CC[C@@H]4CC(=O)CC[C@]4(C)[C@H]3CC[C@]12C
inactive: [2] 96 % of control | [4] 96 % of control | [5] 96 % of control

CCC1(O)CC2CN(CCc3c([nH]c4ccccc34)C(C(=O)OC)(c3cc4c(cc3OC)N(C)C3C(O)(C(N)=O)C(O)C5(CC)C=CCN6CCC43C65)C2)C1 (configuration not stated) (tested in a mixture with another compound)
inactive: dose: 0.13 mg/kg/injection, schedule: Q01DX009 (ip), vehicle: water 121 % of control | dose: 0.22 mg/kg/injection, schedule: Q01DX009 (ip), vehicle: water 123 % of control | dose: 0.23 mg/kg/injection, schedule: Q04DX003 (ip), vehicle: water 121 % of control | dose: 0.36 mg/kg/injection, schedule: Q01DX009 (ip), vehicle: water 122 % of control | dose: 0.39 mg/kg/injection, schedule: Q04DX003 (ip), vehicle: water 124 % of control | dose: 0.52 mg/kg/injection, schedule: Q04DX003 (ip), vehicle: water 106 % of control | dose: 1.44 mg/kg/injection, schedule: Q04DX003 (ip), vehicle: water 112 % of control | dose: 4.0 mg/kg/injection, schedule: Q04DX003 (ip), vehicle: water 104 % of control | dose: 130.0 micrograms/kg/injection, schedule: Q01DX009 (ip), vehicle: water 102 % of control | dose: 216.0 micrograms/kg/injection, schedule: Q01DX009 (ip), vehicle: water 107 % of control | dose: 360.0 micrograms/kg/injection, schedule: Q01DX009 (ip), vehicle: water 113 % of control | dose: 600.0 micrograms/kg/injection, schedule: Q01DX009 (ip), vehicle: water 120 % of control | dose: 1000.0 micrograms/kg/injection, schedule: Q01DX009 (ip), vehicle: water 122 % of control
active: dose: 1.8 mg/kg/injection, schedule: Q04DX003 (ip), vehicle: water 164 % of control

COC1CCCCC1SCSC1CCCCC1OC (configuration not stated)
inactive: [2] 91 % of control | [4] 87 % of control | [5] 89 % of control

N#[N+]c1cnc([O-])[nH]c1=O
inactive: dose: 0.5 mg/kg/injection, schedule: Q07DX Z (ip), vehicle: saline 106 % of control | dose: 1.0 mg/kg/injection, schedule: Q07DX Z (ip), vehicle: saline 112 % of control | dose: 2.0 mg/kg/injection, schedule: Q03DX Z (ip), vehicle: saline 112 % of control | dose: 2.0 mg/kg/injection, schedule: Q07DX Z (ip), vehicle: saline 118 % of control | dose: 4.0 mg/kg/injection, schedule: Q07DX Z (ip), vehicle: saline 116 % of control | dose: 8.0 mg/kg/injection, schedule: Q01DX001 (ip), vehicle: saline 112 % of control | dose: 16.0 mg/kg/injection, schedule: Q01DX001 (ip), vehicle: saline 112 % of control | dose: 32.0 mg/kg/injection, schedule: Q01DX001 (ip), vehicle: saline 115 % of control and 117 % of control

CN(C)c1ccc(OC(=O)c2cc3ccccc3cc2O)cc1
inactive: [6] 112 % of control | [7] 108 % of control | [8] 101 % of control

CC1(C2CC(=O)c3c(O)ccc(O)c3C2)OCCO1 (configuration not stated)
inactive: [9] 104 % of control | [6] 109 % of control | [7] 95 % of control | [8] 98 % of control | dose: 400.0 mg/kg/injection, schedule: Q01DX009 (ip), vehicle: Klucel (hydroxypropylcellulose) (HPC) 102 % of control

Cc1ccc(S(=O)(=O)OC2COC3C(OS(=O)(=O)c4ccc(C)cc4)COC23)cc1 (configuration not stated)
inactive: [10] 93 % of control | dose: 200.0 mg/kg/injection, schedule: Q01DX001 (ip), vehicle: saline with Tween-80 89 % of control | dose: 400.0 mg/kg/injection, schedule: Q01DX001 (ip), vehicle: saline with Tween-80 88 % of control

O=S(=O)(F)c1ccc(O)cc1
inactive: dose: 25.0 mg/kg/injection, schedule: Q01DX009 (ip), vehicle: saline + alcohol 93 % of control | dose: 25.0 mg/kg/injection, schedule: Q04DX003 (ip), vehicle: saline with Tween-80 93 % of control | dose: 50.0 mg/kg/injection, schedule: Q01DX001 (ip), vehicle: saline with Tween-80 96 % of control | dose: 50.0 mg/kg/injection, schedule: Q01DX009 (ip), vehicle: saline + alcohol 95 % of control and 100 % of control | dose: 50.0 mg/kg/injection, schedule: Q04DX003 (ip), vehicle: saline with Tween-80 93 % of control | [10] 95 % of control | dose: 100.0 mg/kg/injection, schedule: Q01DX009 (ip), vehicle: saline + alcohol 93 % of control and 95 % of control | dose: 100.0 mg/kg/injection, schedule: Q04DX002 (ip), vehicle: saline with Tween-80 103 % of control and 107 % of control | [2] 101 % of control

CCCCN(C)N=Nc1ccc(C(N)=O)cc1
inactive: dose: 18.75 mg/kg/injection, schedule: Q01DX009 (ip), vehicle: Klucel (hydroxypropylcellulose) (HPC) 107 % of control | dose: 37.5 mg/kg/injection, schedule: Q01DX009 (ip), vehicle: Klucel (hydroxypropylcellulose) (HPC) 113 % of control | dose: 75.0 mg/kg/injection, schedule: Q01DX009 (ip), vehicle: Klucel (hydroxypropylcellulose) (HPC) 121 % of control | dose: 150.0 mg/kg/injection, schedule: Q01DX009 (ip), vehicle: Klucel (hydroxypropylcellulose) (HPC) 106 % of control

C/C=C\c1ccc(OCCOC(=O)Nc2ccc(C)cc2C)c(OC)c1
inactive: dose: 50.0 mg/kg/injection, schedule: Q01DX009 (ip), vehicle: saline with Tween-80 104 % of control | [1] 96 % of control | [3] 93 % of control

O=C1c2cc([N+](=O)[O-])ccc2-c2ccc([N+](=O)[O-])cc21
inactive: dose: 12.5 mg/kg/injection, schedule: Q01DX009 (ip), vehicle: Klucel (hydroxypropylcellulose) (HPC) 98 % of control | [9] 95 % of control | [6] 102 % of control

CC[n+]1ccc(Nc2ccc(/C=C/c3ccc4cc(Nc5cc[n+](CC)cc5)ccc4[n+]3CC)cc2)cc1
inactive: dose: 2.5 mg/kg/injection, schedule: Q01DX009 (oral), vehicle: saline 98 % of control | dose: 5.0 mg/kg/injection, schedule: Q01DX009 (oral), vehicle: saline 102 % of control | dose: 10.0 mg/kg/injection, schedule: Q01DX009 (oral), vehicle: saline 88 % of control

CCCCC(CC)COc1ccc(N=C(N)N=C(N)N)cc1 (configuration not stated)
inactive: dose: 25.0 mg/kg/injection, schedule: Q04DX002 (ip), vehicle: saline with Tween-80 98 % of control | dose: 50.0 mg/kg/injection, schedule: Q04DX002 (ip), vehicle: saline with Tween-80 102 % of control

Cn1c2ccccc2c2ccccc21
inactive: [2] 100 % of control | [4] 102 % of control | [5] 97 % of control

Cc1c(Cl)cccc1NC(=O)Nc1ccc(F)c([N+](=O)[O-])c1
inactive: [6] 91 % of control | [7] 102 % of control | [8] 98 % of control

CCN(C)c1cc2c3c(c1)CCCN3CCC2
inactive: dose: 1.25 mg/kg/injection, schedule: Q01DX009 (ip), vehicle: saline 103 % of control | dose: 2.5 mg/kg/injection, schedule: Q01DX009 (ip), vehicle: saline 104 % of control | dose: 5.0 mg/kg/injection, schedule: Q01DX001 (ip), vehicle: saline 100 % of control | dose: 5.0 mg/kg/injection, schedule: Q01DX009 (ip), vehicle: saline 98 % of control | dose: 10.0 mg/kg/injection, schedule: Q01DX001 (ip), vehicle: saline 101 % of control | dose: 20.0 mg/kg/injection, schedule: Q01DX001 (ip), vehicle: saline 102 % of control
